Results: patent publication US20190142829A1, “AMELIORATION OF ANGELMAN'S SYNDROME DEFICIENCIES” (Neuralstem, Inc., priority 2017, published 2019)

Legend:
[1] = system: hippocampal slices from normal, healthy, young adult mice (field CA1); experiment: LTP elicited by theta burst stimulation in hippocampal slices treated in vitro, normal mice; assay type: cell-based; settings: 100 nM to 10 μM for up to 3.5 h before theta burst stimulation, applicant's work, Liu et al, SfN Abstract 2016
Experimental: In work by applicant, hippocampal slices from normal, healthy, young adult mice were treated with various concentrations of NSI-189 (100 nM to 10 μM) for various times up to 3.5 h, before applying theta burst stimulation (TBS) to elicit long-term potentiation (LTP) in field CA1.

[2] = system: mice with Angelman syndrome (AS); experiment: Fear-conditioning test, mouse model of Angelman syndrome; assay type: in vivo; settings: 30 mg/kg phosphate salt i.p. daily, 2 weeks, vs vehicle, p<0.01, FIG. 1
Experimental: (§1) Four groups (n=4/5 per group) of young adult mice (age ˜3 months) were administered 30mg/kg of the phosphate salt of NSI-189 i.p. daily for 13-15 days for behavior assays and for 18 days prior to termination followed by in vitro LTP assays or administered only vehicle. The groups included • (1) mice with Angelman syndrome (AS) treated with NSI-189, • (2) mice with Angelman syndrome (AS) treated with vehicle, • (3) wild-type littermates treated with NSI-189, and • (4) wild-type littermates treated with vehicle.
The behavior assay conducted was fear-conditioning test as diagnostic of hippocampal memory function.

AS mice = experiment: Wire hang test (Hanging Wire test), AS mice; assay type: in vivo; settings: phosphate i.p. over 21 days: D1-D7 3, D8-D14 10, D15-D21 30 mg/kg, maximum 120 sec, ultimately matched wild type, FIG. 3
Experimental: The wire hang test evaluates muscle strength as well as motor coordination. The set up includes a wire (0.2 cm in diameter×54.5 cm in length) stretched horizontally between two poles and elevated from a padded surface. The test starts when the mouse hangs onto the wire from its two forelimbs and lasts for 120 sec maximum. The time before falling, or the maximum score of 120 sec if no fall occurred, is recorded for each animal.
Four groups 5 mice for each group were used. Controls were administered vehicle and test groups were administered NSI-189 phosphate i.p. over 21 days as follows: D1-D7—3 mg/kg NSI-189 phosphate; D8-D14—10 mg/kg NSI-189 phosphate; D15-D21—30 mg/kg NSI-189 phosphate.
As shown, the AS mice administered only vehicle were not able to hang onto the wire for more than about 20 seconds, whereas AS mice treated with NSI-189 ultimately matched the times of wild type mice at about 100 seconds.

[3] = system: mice with Angelman syndrome (AS); experiment: LTP assay on post-mortem hippocampal slices after in vivo dosing, AS mice; settings: 30 mg/kg phosphate salt i.p. daily for 18 days, vs vehicle, p<0.05, FIG. 2
Experimental: as §1

[4] = system: hippocampal brain slices prepared from young adult Angelman mice; experiment: LTP in hippocampal brain slices treated in vitro, Angelman mice; assay type: cell-based; settings: slices from Angelman mice (maternal Ube3A deletion); transient treatment for 3.5 hours; Liu et al, SfN Abstract 2016
Description: Further, in a mouse model of Angelman syndrome, carrying the same maternal Ube3A deletion affected in human AS patients, the normal LTP is absent.

wild type mice = experiment: LTP assay on post-mortem hippocampal slices after in vivo dosing, wild type mice; settings: 30 mg/kg phosphate salt i.p. daily for 18 days, FIG. 2
Experimental: as §1

Compound: CC(C)CCNc1ncccc1C(=O)N1CCN(Cc2ccccc2)CC1.O=P(O)(O)O [NSI-189]
- effect on long-term potentiation (LTP) in field CA1 [1]: statistically significant enhancement of the normal LTP level
- freezing time following ring-tone (memory deficit) [2]: memory deficit was diminished
- time before falling (hanging on the wire) (AS mice): about 100 seconds
- LTP in post-mortem hippocampal slices [3]: restoration of LTP
- effect on LTP activity [4]: restore the LTP activity to normal level
- LTP in post-mortem hippocampal slices (wild type mice): improved
